Results reported in PubChem BioAssay AID1963852 (Molecular Pharmacology Branch, DTP, NCI, 2024).

Test system: 282377-053-R-J1-PDC complex spheroid viability
Assay: Anticancer human tumor 282377-053-R-J1-PDC patient-derived colon adenocarcinoma cell line growth inhibition [POLQ]
Conditions: for IC50: curve of first compound; for viability, T/C: stronger effect = lower value
Summary of the method: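 Growth inhibition in 3D: complex spheroids (tumor PDC, HUVEC, MSC) treated with POLQ inhibitor combinations; where Cmax unknown, highest tested concentration 10 microM, except SN-38 at 1 microM.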

[1] = second compound 0.0316 µM, first compound 0.0316 µM
[2] = second compound 0.0316 µM, first compound 0.1 µM
[3] = second compound 0.0316 µM, first compound 0.316 µM
[4] = second compound 0.0316 µM, first compound 1 µM
[5] = second compound 0.1 µM, first compound 0.0316 µM
[6] = second compound 0.1 µM, first compound 0.1 µM
[7] = second compound 0.1 µM, first compound 0.316 µM
[8] = second compound 0.1 µM, first compound 1 µM
[9] = second compound 0.316 µM, first compound 0.0316 µM
[10] = second compound 0.316 µM, first compound 0.1 µM
[11] = second compound 0.316 µM, first compound 0.316 µM
[12] = second compound 0.316 µM, first compound 1 µM
[13] = second compound 1 µM, first compound 0.0316 µM
[14] = second compound 1 µM, first compound 0.1 µM
[15] = second compound 1 µM, first compound 0.316 µM
[16] = second compound 1 µM, first compound 1 µM
[17] = second compound 3.16 µM, first compound 0.0316 µM
[18] = second compound 3.16 µM, first compound 0.1 µM
[19] = second compound 3.16 µM, first compound 0.316 µM
[20] = second compound 3.16 µM, first compound 1 µM
[21] = second compound 10 µM, first compound 0.0316 µM
[22] = second compound 10 µM, first compound 0.1 µM
[23] = second compound 10 µM, first compound 0.316 µM
[24] = second compound 10 µM, first compound 1 µM
[25] = second compound 0.0316 µM, first compound 3.16 µM
[26] = second compound 0.0316 µM, first compound 10 µM
[27] = second compound 0.1 µM, first compound 3.16 µM
[28] = second compound 0.1 µM, first compound 10 µM
[29] = second compound 0.316 µM, first compound 3.16 µM
[30] = second compound 0.316 µM, first compound 10 µM
[31] = second compound 1 µM, first compound 3.16 µM
[32] = second compound 1 µM, first compound 10 µM
[33] = second compound 3.16 µM, first compound 3.16 µM
[34] = second compound 3.16 µM, first compound 10 µM
[35] = second compound 10 µM, first compound 3.16 µM
[36] = second compound 10 µM, first compound 10 µM
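Further: spheroids exposed to compounds for seven days.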
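Wherever viability, T/C is given: 100% = DMSO vehicle control viability.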

## CCc1c2c(nc3ccc(O)cc13)-c1cc3c(c(=O)n1C2)COC(=O)[C@]3(O)CC + Cc1cccc(N(C)C(=O)C2C(O)CCN2c2nc(C)cc(C(F)(F)F)c2C#N)c1
Second compound 0.0316 µM
  IC50: 50.3 nM
Second compound 0.1 µM
  IC50: 180 nM
Second compound 0.316 µM
  IC50: 71.5 nM
Second compound 1 µM
  IC50: 116 nM
Second compound 3.16 µM
  IC50: 70.2 nM
Second compound 10 µM
  IC50: 57.5 nM
Second compound 0.0316 µM, first compound 0.00316 µM
  viability, T/C: 122%
Second compound 0.0316 µM, first compound 0.01 µM
  viability, T/C: 76.2%
[1]
  viability, T/C: 51.8%
[2]
  viability, T/C: 49.2%
[3]
  viability, T/C: 40.1%
[4]
  viability, T/C: 23.2%
Second compound 0.1 µM, first compound 0.00316 µM
  viability, T/C: 97.1%
Second compound 0.1 µM, first compound 0.01 µM
  viability, T/C: 81.6%
[5]
  viability, T/C: 72%
[6]
  viability, T/C: 62.4%
[7]
  viability, T/C: 41.5%
[8]
  viability, T/C: 21.8%
Second compound 0.316 µM, first compound 0.00316 µM
  viability, T/C: 102%
Second compound 0.316 µM, first compound 0.01 µM
  viability, T/C: 74.9%
[9]
  viability, T/C: 54.4%
[10]
  viability, T/C: 52%
[11]
  viability, T/C: 41.4%
[12]
  viability, T/C: 25.7%
Second compound 1 µM, first compound 0.00316 µM
  viability, T/C: 110%
Second compound 1 µM, first compound 0.01 µM
  viability, T/C: 86.8%
[13]
  viability, T/C: 53.5%
[14]
  viability, T/C: 51.6%
[15]
  viability, T/C: 44.8%
[16]
  viability, T/C: 17.2%
Second compound 3.16 µM, first compound 0.00316 µM
  viability, T/C: 104%
Second compound 3.16 µM, first compound 0.01 µM
  viability, T/C: 69.3%
[17]
  viability, T/C: 63.5%
[18]
  viability, T/C: 44.4%
[19]
  viability, T/C: 40.8%
[20]
  viability, T/C: 22.5%
Second compound 10 µM, first compound 0.00316 µM
  viability, T/C: 106%
Second compound 10 µM, first compound 0.01 µM
  viability, T/C: 87.5%
[21]
  viability, T/C: 49.5%
[22]
  viability, T/C: 42.5%
[23]
  viability, T/C: 37.4%
[24]
  viability, T/C: 16.7%

## CCc1cc2c(N3CCc4c(cc(Cn5ccnc5)cc4-c4cn(C)nc4C(F)(F)F)C3=O)ccnc2c(OC)n1 + Cc1cccc(N(C)C(=O)C2C(O)CCN2c2nc(C)cc(C(F)(F)F)c2C#N)c1
Second compound 0.0316 µM
  IC50: > 10000 nM
Second compound 0.1 µM
  IC50: > 10000 nM
Second compound 0.316 µM
  IC50: > 10000 nM
Second compound 1 µM
  IC50: > 10000 nM
Second compound 3.16 µM
  IC50: > 10000 nM
Second compound 10 µM
  IC50: > 10000 nM
[1]
  viability, T/C: 108%
[2]
  viability, T/C: 94.1%
[3]
  viability, T/C: 91%
[4]
  viability, T/C: 110%
[25]
  viability, T/C: 104%
[26]
  viability, T/C: 106%
[5]
  viability, T/C: 93.4%
[6]
  viability, T/C: 90.9%
[7]
  viability, T/C: 85.8%
[8]
  viability, T/C: 91.4%
[27]
  viability, T/C: 103%
[28]
  viability, T/C: 121%
[9]
  viability, T/C: 95%
[10]
  viability, T/C: 94.9%
[11]
  viability, T/C: 89.8%
[12]
  viability, T/C: 86.1%
[29]
  viability, T/C: 104%
[30]
  viability, T/C: 93.8%
[13]
  viability, T/C: 95.2%
[14]
  viability, T/C: 87.6%
[15]
  viability, T/C: 104%
[16]
  viability, T/C: 101%
[31]
  viability, T/C: 107%
[32]
  viability, T/C: 109%
[17]
  viability, T/C: 98.9%
[18]
  viability, T/C: 91.6%
[19]
  viability, T/C: 101%
[20]
  viability, T/C: 99.6%
[33]
  viability, T/C: 115%
[34]
  viability, T/C: 116%
[21]
  viability, T/C: 98.9%
[22]
  viability, T/C: 95.6%
[23]
  viability, T/C: 108%
[24]
  viability, T/C: 96.4%
[35]
  viability, T/C: 111%
[36]
  viability, T/C: 124%

## CC(C)n1c(=O)n(C)c2cnc3cc(F)c(-c4ccc(OCCCN5CCCCC5)nc4)cc3c21 + Nc1ccc(C#CCN(C(=O)Cc2ncc(C(F)(F)F)cc2C(F)(F)F)c2ccc(F)cc2)nn1
Second compound 0.0316 µM
  IC50: > 10000 nM
Second compound 0.1 µM
  IC50: > 10000 nM
Second compound 0.316 µM
  IC50: > 10000 nM
Second compound 1 µM
  IC50: > 10000 nM
Second compound 3.16 µM
  IC50: > 10000 nM
Second compound 10 µM
  IC50: > 10000 nM
[1]
  viability, T/C: 101%
[2]
  viability, T/C: 105%
[3]
  viability, T/C: 107%
[4]
  viability, T/C: 103%
[25]
  viability, T/C: 110%
[26]
  viability, T/C: 92.7%
[5]
  viability, T/C: 117%
[6]
  viability, T/C: 113%
[7]
  viability, T/C: 108%
[8]
  viability, T/C: 108%
[27]
  viability, T/C: 97.2%
[28]
  viability, T/C: 101%
[9]
  viability, T/C: 111%
[10]
  viability, T/C: 91.5%
[11]
  viability, T/C: 109%
[12]
  viability, T/C: 104%
[29]
  viability, T/C: 106%
[30]
  viability, T/C: 94.5%
[13]
  viability, T/C: 116%
[14]
  viability, T/C: 105%
[15]
  viability, T/C: 103%
[16]
  viability, T/C: 112%
[31]
  viability, T/C: 118%
[32]
  viability, T/C: 102%
[17]
  viability, T/C: 105%
[18]
  viability, T/C: 106%
[19]
  viability, T/C: 103%
[20]
  viability, T/C: 115%
[33]
  viability, T/C: 108%
[34]
  viability, T/C: 111%
[21]
  viability, T/C: 121%
[22]
  viability, T/C: 119%
[23]
  viability, T/C: 114%
[24]
  viability, T/C: 128%
[35]
  viability, T/C: 127%
[36]
  viability, T/C: 122%

## CC1COCCN1c1cc(-c2ccnn2C)c2ccnc(-c3ccn[nH]3)c2n1 (stereo not drawn) + COC1C(OC(N)=O)C(O)C(Oc2ccc3c(O)c(NC(=O)c4ccc(O)c(CC=C(C)C)c4)c(=O)oc3c2C)OC1(C)C
Second compound 0.0316 µM
  IC50: 377 nM
Second compound 0.1 µM
  IC50: 398 nM
Second compound 0.316 µM
  IC50: 589 nM
Second compound 1 µM
  IC50: 677 nM
Second compound 3.16 µM
  IC50: 450 nM
Second compound 10 µM
  IC50: 642 nM
[1]
  viability, T/C: 107%
[2]
  viability, T/C: 99.6%
[3]
  viability, T/C: 52.5%
[4]
  viability, T/C: 34.2%
[25]
  viability, T/C: 26.9%
[26]
  viability, T/C: 25.4%
[5]
  viability, T/C: 95.2%
[6]
  viability, T/C: 80.5%
[7]
  viability, T/C: 52.7%
[8]
  viability, T/C: 36.5%
[27]
  viability, T/C: 33.9%
[28]
  viability, T/C: 27.6%
[9]
  viability, T/C: 95.6%
[10]
  viability, T/C: 87.5%
[11]
  viability, T/C: 59.9%
[12]
  viability, T/C: 41.1%
[29]
  viability, T/C: 25.9%
[30]
  viability, T/C: 20.4%
[13]
  viability, T/C: 89.1%
[14]
  viability, T/C: 85.3%
[15]
  viability, T/C: 68.4%
[16]
  viability, T/C: 40%
[31]
  viability, T/C: 27.4%
[32]
  viability, T/C: 21.4%
[17]
  viability, T/C: 102%
[18]
  viability, T/C: 94.8%
[19]
  viability, T/C: 57.3%
[20]
  viability, T/C: 32.5%
[33]
  viability, T/C: 26.5%
[34]
  viability, T/C: 22.6%
[21]
  viability, T/C: 121%
[22]
  viability, T/C: 80.8%
[23]
  viability, T/C: 66.7%
[24]
  viability, T/C: 39.7%
[35]
  viability, T/C: 33.3%
[36]
  viability, T/C: 21.8%
